We go through one molecule from patent US20100204156A1, “USE OF THYMOPENTIN AS A THERAPEUTIC AGENT” (priority 2007, published 2010).

This test relates to drug-resistant Mycobacterium tuberculosis. The settings on record: 5 micrograms per ml.

Residues, ends and D or L forms follow the SMILES beside them.

In the case of `CC(C)[C@H](NC(=O)[C@H](CC(=O)O)NC(=O)[C@H](CCCCN)NC(=O)[C@@H](N)CCCN=C(N)N)C(=O)N[C@@H](Cc1ccc(O)cc1)C(=O)O` [Thymopentin, Arg-Lys-Asp-Val-Tyr-OH] (H-RKDVY-OH), the % inhibition – broadly, the relative decrease from the control value, in per cent – amounted to 0.0%.
